US12474342B2, “Methods for treating cancer and the use of biomarkers as a predictor of clinical sensitivity to therapies” (CELGENE CORPORATION, priority 2016, dated 2025)
Each block holds one compound with its values, some of them ahead of it.

Legend:
[1] = test system: MOLM-13 cells; experiment: Anti-proliferation CTG assay, MOLM-13; type: cell-based, human; conditions: 48 hours
Description: (§1) A plethora of AML cell lines were treated with serial dilutions of Compound D. IC50 value of the anti-proliferation effect of Compound D (as determined in 72-hour CTG assays) in each cell line is summarized in Table 1.
(§2) The effect of overexpression of GSPT1 on the anti-proliferative effect of Compound D and Compound E was determined in human histiocytic lymphoma cell line U937 and human leukemia cell line MOLM13. Treatment compounds (e.g., Compound D or Compound E) were titrated from 0.001 μM to 10 μM. Cell proliferation was measured by CellTiter-Glo cell viability assay at 48 hours after treatment. […] However, when exogenous GSPT1 was overproduced via the EF1α promoter, as shown in FIGS. 5A-5D, the anti-proliferative effect of Compound D and Compound E reduced.

[2] = test system: OCI-AML3 cells; experiment: Anti-proliferation CTG assay, OCI-AML3; type: cell-based, human; conditions: AML3 parental or control shRNA cells, 0.0001 μM to 1 μM, two days
Description: as §1
The effect of depletion of GSPT1 on the anti-proliferative effect of compound Compound D and Compound E was also determined in human acute myelogenous leukemia cell lines AML and KG1. Cells were infected with lentiviral vectors expressing control shRNA, shGSPT1-1 or shGSPT1-3 for 7 days and then treated with DMSO, Compound D or Compound E in a titration from 0.0001 μM to 1 μM. Two days after treatment, cell proliferation was measured by CellTiter-Glo cell viability. […] Both shGSPT1-1 and shGSPT1-3 reduced the expression of GSPT1, eRF1, and slightly of CRBN.

[3] = target: T1, GSPT1 (Homo sapiens, UniProt P15170+Q96SW2); experiment: GSPT1 protein reduction, western analysis, KG-1; type: cell-based; parameters: reduction in GSPT1 protein level was evaluated in human normal PBMCs; endogenous in cells; host or cells: primary PBMCs from normal donors (ID 4328, 4379) and AML patients (ID 11SH, 09P6); conditions: KG1, 200 nM, 8 or 12 hours
Description: (§3) Cells were treated with DMSO alone, 200 nM Compound D, or 200 nM Compound E. After 8 or 12 hours, the expression levels of various cellular components along UPR or apoptosis pathways were measured. […] Reduction of BIP indicates UPR.
(§4) To further investigate the timeline of cellular events upon Compound D treatment, KG1 cells were treated with DMSO alone or 200 nM Compound D. At 2, 4, 6, 8, 10, or 12 hours, the expression levels of various cellular components along ATF4 or apoptosis pathways were measured.
In two sensitive AML cell lines, KG-1 and HL-60, both a concentration-dependent decrease in GSPT1 protein and an increase in RNA expression of ATF3, CHOP, and SRSF3 and SRSF6 NMD transcripts at the 8-hour time point were compared to caspase 3/7 activation (apoptosis) at the 24-hour (FIG. 30A [KG-1]; FIG. 30C [HL-60]) and 48-hour (FIG. 30B [KG-1]; FIG. 30D [HL-60]) time points.
The reduction in the level of GSPT1 protein was concentration-dependent over the range of 3 to 1000 nM in eight of the nine AML cell lines and over the range of 300 to 1000 nM in one relatively insensitive AML cell line. The time course of the reduction in GSPT1 by Compound D also was studied for up to 48 hours. The progressive degradation of GSPT1 over the course of 1 to 20 hours was evident in the presence of all concentrations of Compound D studied from 3 to 300 nM in HNT-34, HL-60, and ML-2 cells, with little GSPT1 remaining by 20 hours at 100 or 300 nM Compound D in HNT-34 or HL-60 cells (FIG. 34 and FIG. 35C). Time-dependent reduction in GSPT1 was also observed in KG-1 and OCI-AML2 cells at 3 to 1000 nM Compound D, with little GSPT1 remaining in KG-1 cells at 100 to 300 nM at 24 hours or in OCI-AML2 cells at 300 and 1000 nM at 24 hours (FIG. 35D). Loss of GSPT1 occurred more slowly in Kasumi-1, AML-193, and F36-P cells.
Compound D-mediated GSPT1 reduction at 8 hours was compared to induction of caspase 3/7 activation (apoptosis) at 12, 24, and 48 hour time points in these nine AML cell lines. […] A positive association (r^2=0.50; R=0.71; p value=4.86E-002) was observed between the level of GSPT1 reduction and apoptosis induction in the AML cell panel (FIG. 36), with >90% GSPT1 reduction correlating with induction of apoptosis.

[4] = test system: KG-1 cells; experiment: Anti-proliferation CTG assay, KG-1; type: cell-based, human; conditions: KG1 parental or control shRNA cells, 0.0001 μM to 1 μM, two days
Description: The effect of depletion of GSPT1 on the anti-proliferative effect of compound Compound D and Compound E was also determined in human acute myelogenous leukemia cell lines AML and KG1. […]

[5] = test system: ATF3, DDIT3, cleaved Caspases, cleaved PARP; experiment: UPR and apoptosis pathway components in KG1 cells; type: cell-based, human; conditions: KG1, 200 nM, 8 or 12 hours
Description: Cells were treated with DMSO alone or 200 nM Compound D. After 2, 4, or 6 hours, the expression levels of various cellular components along UPR or apoptosis pathways were measured. […] Reduction of BIP indicates UPR.
as §3, §4

[6] = test system: U-937 cells; experiment: Anti-proliferation CTG assay, U-937; type: cell-based, human; conditions: 48 hours
Description: as §1, §2

[7] = target: T1, GSPT1; experiment: GSPT1 protein reduction, western analysis, normal PBMCs; conditions: PBMC, 1 nM to 1000 nM, 20 hours
Description: PBMC were treated with 1 nM, 10 nM, 100 nM, or 1000 nM of Compound D or Compound E for 20 hours.

[8] = target: T1, GSPT1; experiment: GSPT1 degradation in NB4 cell line; type: cell-based; parameters: endogenous in cells
[9] = target: IKZF1 (Homo sapiens, UniProt Q13422+Q96SW2)
[10] = test system: translational readthrough; experiment: AML2 readthrough assay (Fluc/Nluc-G36A reporter), OCI-AML2; type: cell-based, human; conditions: 300 μg/ml G418 or 200 nM Compound D
Description: (§5) It is known that amino acid starvation causes GCN2 activation, which phosphorylates eIF2α. Because GSPT1 mediates normal translation termination, it is hypothesized that depletion of GSPT1 by Compound D may cause readthrough of stop codons. Whether the translational readthrough induced by Compound D contributes to the increased levels of p-eIF2α was investigated. OCI-AML2 cells stably expressing the Fluc/Nluc-G36A readthrough reporter were treated with 300 μg/ml G418 or 200 nM Compound D for 2, 4, 6, 8, 10, 12, or 16 hours. The levels of p-eIF2α were measured by immunoblot analysis. AML2 readthrough assay was conducted to measure the readthrough reporter.

[11] = test system: p-eIF2α; experiment: p-eIF2α immunoblot, OCI-AML2; type: cell-based, human; conditions: 300 μg/ml G418 or 200 nM Compound D
Description: as §5

T1 sequence (P15170 1-637 isoform P15170-3): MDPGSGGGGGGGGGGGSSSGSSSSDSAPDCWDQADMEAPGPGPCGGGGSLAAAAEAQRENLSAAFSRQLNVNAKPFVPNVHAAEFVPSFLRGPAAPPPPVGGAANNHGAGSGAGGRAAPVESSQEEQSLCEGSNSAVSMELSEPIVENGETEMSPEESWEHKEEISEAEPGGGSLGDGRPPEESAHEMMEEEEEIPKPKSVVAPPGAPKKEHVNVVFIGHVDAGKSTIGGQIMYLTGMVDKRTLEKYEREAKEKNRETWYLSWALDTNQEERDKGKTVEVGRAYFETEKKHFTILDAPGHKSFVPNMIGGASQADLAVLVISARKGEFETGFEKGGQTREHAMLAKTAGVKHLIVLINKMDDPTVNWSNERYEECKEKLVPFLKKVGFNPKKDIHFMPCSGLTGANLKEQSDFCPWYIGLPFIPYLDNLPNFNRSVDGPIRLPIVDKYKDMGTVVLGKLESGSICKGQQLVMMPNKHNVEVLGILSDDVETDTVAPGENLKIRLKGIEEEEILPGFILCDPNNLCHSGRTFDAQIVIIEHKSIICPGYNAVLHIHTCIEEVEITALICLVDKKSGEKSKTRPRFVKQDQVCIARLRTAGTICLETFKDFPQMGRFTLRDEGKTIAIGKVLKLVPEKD
T1 sequence (Q96SW2 whole entry): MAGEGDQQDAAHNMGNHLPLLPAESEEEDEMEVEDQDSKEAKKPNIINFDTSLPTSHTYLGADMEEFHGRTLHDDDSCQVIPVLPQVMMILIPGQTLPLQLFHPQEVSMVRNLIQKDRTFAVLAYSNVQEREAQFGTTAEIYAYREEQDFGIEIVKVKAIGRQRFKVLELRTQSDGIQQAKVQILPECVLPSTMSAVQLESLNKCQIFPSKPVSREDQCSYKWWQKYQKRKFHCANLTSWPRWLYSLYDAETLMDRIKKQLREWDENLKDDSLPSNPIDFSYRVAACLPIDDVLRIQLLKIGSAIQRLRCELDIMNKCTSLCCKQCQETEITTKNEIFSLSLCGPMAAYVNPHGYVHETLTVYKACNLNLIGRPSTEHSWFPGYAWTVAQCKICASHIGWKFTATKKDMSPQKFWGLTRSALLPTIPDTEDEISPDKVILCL
T1 sequence (Q16531 whole entry partner): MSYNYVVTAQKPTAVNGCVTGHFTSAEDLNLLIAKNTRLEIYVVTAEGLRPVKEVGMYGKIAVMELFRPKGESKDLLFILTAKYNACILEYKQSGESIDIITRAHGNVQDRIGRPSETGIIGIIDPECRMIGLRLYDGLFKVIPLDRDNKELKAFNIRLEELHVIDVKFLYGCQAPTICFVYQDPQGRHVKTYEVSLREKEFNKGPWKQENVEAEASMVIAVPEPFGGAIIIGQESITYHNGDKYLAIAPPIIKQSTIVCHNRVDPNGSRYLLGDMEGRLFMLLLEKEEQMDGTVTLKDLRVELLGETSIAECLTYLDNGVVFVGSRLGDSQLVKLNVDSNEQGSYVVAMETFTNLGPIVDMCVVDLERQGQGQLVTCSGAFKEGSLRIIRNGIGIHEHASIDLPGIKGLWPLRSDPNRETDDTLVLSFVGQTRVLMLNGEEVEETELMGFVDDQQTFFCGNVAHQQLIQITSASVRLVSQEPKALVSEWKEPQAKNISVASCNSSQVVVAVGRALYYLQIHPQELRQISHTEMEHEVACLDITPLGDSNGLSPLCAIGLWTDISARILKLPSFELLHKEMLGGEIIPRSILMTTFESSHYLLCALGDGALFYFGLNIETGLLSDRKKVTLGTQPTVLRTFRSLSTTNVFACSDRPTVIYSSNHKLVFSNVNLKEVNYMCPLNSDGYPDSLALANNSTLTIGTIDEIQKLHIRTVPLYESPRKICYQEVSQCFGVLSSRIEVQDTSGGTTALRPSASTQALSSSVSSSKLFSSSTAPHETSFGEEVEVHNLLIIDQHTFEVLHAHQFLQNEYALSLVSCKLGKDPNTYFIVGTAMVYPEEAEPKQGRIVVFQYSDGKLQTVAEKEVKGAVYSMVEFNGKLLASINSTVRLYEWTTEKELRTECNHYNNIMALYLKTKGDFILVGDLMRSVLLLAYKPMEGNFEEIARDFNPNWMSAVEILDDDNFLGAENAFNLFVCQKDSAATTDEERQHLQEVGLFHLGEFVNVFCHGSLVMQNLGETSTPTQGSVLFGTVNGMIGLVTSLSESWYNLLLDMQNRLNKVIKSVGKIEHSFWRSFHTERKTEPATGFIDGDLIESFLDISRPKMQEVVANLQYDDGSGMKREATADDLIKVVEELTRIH
Chain of IKZF1 (Q13422 whole entry): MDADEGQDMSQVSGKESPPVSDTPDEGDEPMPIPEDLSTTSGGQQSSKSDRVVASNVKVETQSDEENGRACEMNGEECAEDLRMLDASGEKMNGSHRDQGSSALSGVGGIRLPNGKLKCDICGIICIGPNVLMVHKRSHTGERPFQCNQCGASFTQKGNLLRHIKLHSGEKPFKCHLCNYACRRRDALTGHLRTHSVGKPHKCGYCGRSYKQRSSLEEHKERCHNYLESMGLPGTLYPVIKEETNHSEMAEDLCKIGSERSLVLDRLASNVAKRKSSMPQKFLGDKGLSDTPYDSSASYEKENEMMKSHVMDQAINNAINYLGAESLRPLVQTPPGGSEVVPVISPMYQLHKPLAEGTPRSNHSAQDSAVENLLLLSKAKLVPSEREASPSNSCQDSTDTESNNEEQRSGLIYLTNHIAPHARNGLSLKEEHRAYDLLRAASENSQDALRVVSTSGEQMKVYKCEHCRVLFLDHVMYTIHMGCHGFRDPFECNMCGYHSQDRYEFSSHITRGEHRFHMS
Chain of IKZF1 (Q96SW2 whole entry): as the sequence (Q96SW2 whole entry) above
Chain of IKZF1 (Q16531 whole entry partner): as the sequence (Q16531 whole entry partner) above

degradation of GSPT1 [3]: induced degradation | expression of GSPT1 [7]: decreased the expression of GSPT1
Structure (SMILES): O=C1CCC(N2Cc3cc(CNC(=O)C(F)(F)c4ccc(F)cc4)ccc3C2=O)C(=O)N1 (stereo not shown) [Compound E, N-((2-(2,6-dioxopiperidin-3-yl)-1-oxoisoindolin-5-yl)methyl)-2,2-difluoro-2-(4-fluorophenyl)acetamide]
anti-proliferative effect ([1]; MOLM13 CRBN -/- cells): completely abolished | cell proliferation (CellTiter-Glo) ([1]; MOLM13 parental cells, 0.001 μM to 10 μM): inhibited cell proliferation | cell proliferation (CellTiter-Glo) [2]: exhibited anti-proliferative effect, particularly at high concentration | cell proliferation (CellTiter-Glo) [4]: exhibited anti-proliferative effect, particularly at high concentration | level of ATF3, DDIT3, cleaved Caspase-3, cleaved Caspase-8, and cleaved PARP [5]: increased the level | anti-proliferative effect ([6]; U937 CRBN -/- cells): completely abolished | cell proliferation (CellTiter-Glo) ([6]; U937 parental cells, 0.001 μM to 10 μM): inhibited cell proliferation

effect on GSPT1 level [8]: no significant effect
Structure (SMILES): Nc1cccc2c1C(=O)N(C1CCC(=O)NC1=O)C2=O (stereo not shown) [pomalidomide, reference compound]
effect on IKZF1 level [9]: induced degradation of IKZF1 at much lower concentrations than Compound D

Structure (SMILES): CN[C@@H]1[C@@H](O)[C@@H](O[C@@H]2[C@@H](O)[C@H](O[C@H]3O[C@H]([C@@H](C)O)[C@@H](O)[C@H](O)[C@H]3N)[C@@H](N)C[C@H]2N)OC[C@]1(C)O [Compound G418, G418, reference compound]
translational readthrough [10]: induced translational readthrough at a comparable level | levels of p-eIF2α [11]: little effect
